Source: US11857521B1, “Anti-mycobacterial drugs” (priority 2022, dated 2024)
Read-outs that look alike come from different tables or passages of the source.

Assays:
[1] = system: M. smegmatis; assay: Checkerboard assay with OCG; assay type: cell-based, Mycobacterium smegmatis; conditions: for Interaction / FICI (Fractional Inhibitory Concentration Index): drug in combination with OCG; for FICI (Fractional Inhibitory Concentration Index): range of three experiments
[2] = system: M. smegmatis membrane potential (Δψ); conditions: OCG at 2×MIC; CCCP at various concentrations
Procedure: Bacterial cells were grown to late log-phase in 7H9. Cells were centrifuged at 3000×g for 5 min at 25° C., washed twice and resuspended in 10 mL of 5 mM HEPES buffer, pH 7.2 supplemented with 1 mM glucose. OD600 of the cells was then adjusted to 0.4. The cell suspension was treated with 1 μM of the potentiometric probe 3,3′-Dipropylthiadicarbocyanine Iodide (DiSC3(5)) was added. It was incubated at 37° C., and monitored the quenching of DiSC3(5) dye in the presence of M. smegmatis cells for 30 min. In a black-sided 96-well microtiter plate, polymer solution was added to the plate and serially diluted two-fold in 50 mM HEPES buffer supplemented with 1 mM glucose and 2% DMSO for a final volume of 50 μL per well and 1% DMSO. After 30 min of quenching DiSC3(5), 50 μL of the bacterial suspension with dye was added to the polymer-containing wells. […] Fluorescence was recorded 590/635 nm (excitation/emission) for 1 h every 10 min on a BioTek Synergy H1 plate reader. Assay was performed at least three independent experiments.

[3] = system: M. smegmatis mc^2155; assay type: cell-based, Mycobacterium smegmatis
[4] = system: S. aureus ATCC 6538; assay type: cell-based, Staphylococcus aureus
[5] = system: E. coli ATCC 8739; assay type: cell-based, Escherichia coli
[6] = system: B. cepacia ATCC 2516
[7] = system: P. aureginosa ATCC 15442
[8] = system: C. albicans ATCC 10231
[9] = system: M. bovis BCG
[10] = system: Mab 3690 S
[11] = system: Mab 3690 R
[12] = 2 mM OCG in 100 mM NaCl, titrated with 25 mM NaOH
Procedure: The pH was measured using a Mettler Toledo in Lab Ultra-Micro pH Probe. The acidified solution was titrated at 5 μL increments of 25 mM NaOH. The pH readings were recorded from pH ˜2.5-11. After plotting ΔpH/Δvolume of NaOH, the two points where the largest change in pH occurred were found. The median volume between the two maxima was identified as the point where pH=pKa. Solution of 100 mM NaCl served as control. Experiment was performed in triplicates.

[13] = system: M. smegmatis mc^2155; conditions: 4×MIC for 1 h
Procedure: Similarly, outer membrane permeability assay using 10 μM N-Phenyl-2-naphthylamine in 4% acetone was used as a non-fluorescent dye that upon hydrophobic interaction, it emits fluorescence signal. Cells were grown to mid-log phase (OD600=0.5), centrifuged at 4000×g for 2 min at 25° C., washed and resuspended in 5 mM HEPES buffer, pH 7.2. Compounds were made in HEPES buffer and 50 μL was added to an optical bottom black-sided 96-well microtiter plate. Then 50 μL of 40 μM NPN solution and 100 μL of cell suspension were added to the plate. Fluorescence was measured at 350/400 nm (excitation/emission) for 1 h. Experiments were performed in triplicates.

[14] = system: M. smegmatis mc^2155; conditions: 2×MIC
Procedure: M. smegmatis mc^2155 was culture as previously described in the MIC assay. […] After treatment period, 500 μL of the solution was centrifuge at 3000×g for 30 s at 25° C. The pellet was resuspended in 1 mL glutaraldehyde/cacodylate fixative solution and stored at −20° C. before imaging. Images were analyzed for significant morphological changes. The frequency of membrane ruffling, membrane delamination, cytosolic leakage, and cells that appeared hollowed (i.e., cell death) were counted and divided by the total cell number per frame. The percent of the observed cell envelope stress indicators was used for statistical analysis.

[15] = system: M. smegmatis; conditions: after 2 h of treatment
[16] = system: MSMEG_5072; conditions: 2×MIC for an hour, sigA housekeeping gene
Procedure: (§1) The bacterial cell suspension centrifuged at 40000×g for 5 min at 25° C. and resuspended in 1 mL guanidine thiocyanate (GTC) buffer. The cells were spun down at 12000×g for 5 min and resuspended in 750 μL of TRIzol reagent (Invitrogen), and added to 0.5 mL of 0.1 mm zirconia/silica beads. Cells were lysed in a bead beater for two 1 min intervals with incubation on ice between intervals. Afterwards, 2004 of chloroform was added to the tube, mixed, and spun at 12000×g for 15 min. The aqueous layer was carefully removed to 500 μL of RNase-free ethanol and mixed. From the solution, 700 μL were loaded onto Rnease Kit (Qiagen) miniprep columns and spun at 10000×g for 1 min. The remainder of the solution was then loaded and spun. The column was washed with 700 μL of RW1 buffer and discarded. The column was then washed twice with 500 μL RPE buffer and spun as previously described. The column was transferred to a new tube to elute the sample using 30 μL of RNase-free water and spun.
(§2) To ensure there is DNA-free, the sample was treated using TURBO DNA-free kit (Ambion) where a 1 μL of DNase and 3.5 μL of 10×DNase Buffer were added to the 30 μL of RNA and incubated for 1 h at 37° C. […] The concentration of RNA was determined through a ThermoFisher multichannel NanoDrop and adjusted to 50 ng/mL for cDNA reaction. […]

[17] = system: MSMEG_2694; conditions: 2×MIC for an hour, sigA housekeeping gene
Procedure: as §1, §2

[18] = Mycolicibacterium smegmatis, single agent in checkerboard assay, M. smegmatis, read-out: MIC

COc1nc2ccc(Br)cc2cc1[C@@H](c1ccccc1)[C@@](O)(CCN(C)C)c1cccc2ccccc12 [Bedaquiline (BDQ), bedaquiline]
MIC ([1]; Mycolicibacterium smegmatis): 0.12 µg/mL | Interaction ([1]; M. smegmatis): Synergy | FICI (Fractional Inhibitory Concentration Index) ([1]; M. smegmatis): 0.38-0.5

CC(C)/N=c1\cc2n(-c3ccc(Cl)cc3)c3ccccc3nc-2cc1Nc1ccc(Cl)cc1 [Clofazimine (CLZ), clofazimine]
MIC [1, 18]: 2.5 µg/mL | Interaction ([1]; M. smegmatis): Additive | FICI (Fractional Inhibitory Concentration Index) ([1]; M. smegmatis): 0.5-0.75 | FICI (Fractional Inhibitory Concentration Index) ([1]; M. smegmatis, listed as CLZ): 0.50-0.75

CO[C@H]1/C=C/O[C@@]2(C)Oc3c(C)c(O)c4c(O)c(c(/C=N/N5CCN(C)CC5)c(O)c4c3C2=O)NC(=O)/C(C)=C\C=C\[C@H](C)[C@H](O)[C@@H](C)[C@@H](O)[C@@H](C)[C@H](OC(C)=O)[C@@H]1C [Rifampin (RIF), rifampin]
MIC [1, 18]: 8 µg/mL | Interaction ([1]; M. smegmatis): Additive | FICI (Fractional Inhibitory Concentration Index) ([1]; M. smegmatis): 1-2

cyanide m-chlorophenyl hydrazone [CCCP, reference compound]
membrane potential (Δψ), DiSC3(5) fluorescence [2]: did not exhibit concentration-dependent potential changes

oligo(carbamoylated guanidine) [OCG]
change of MIC, Msm cultured in LB compared with 7H9 medium [3]: increased ˜four times | MIC90 Msm ([3]; M. smegmatis mc 155, Table 2): 6 µg/mL | MIC90 Msm ([3]; Msm mc^2 155 grown in 7H9 medium): 6 µg/mL | MIC90 Msm ([3]; Msm mc^2 155 grown in LB): 25 to 50 µg/mL | MIC90 Sa [4]: 50 µg/mL | MIC90 Ec [5]: >200 µg/mL | MIC ([1]; single agent in checkerboard assay, M. smegmatis): 6 µM | MIC90 Bc [6]: >200 µg/mL | MIC90 Pa [7]: >200 µg/mL | MIC90 Ca [8]: >200 µg/mL | MIC90 BCG [9]: 25 µg/mL | MIC90 Mab S [10]: 65 µg/mL | MIC90 Mab R [11]: 188 µg/mL | change of MIC, Mab R morphotype compared with S [11]: ˜three-fold increase | pKa [12]: ~5 | NPN fluorescence (membrane damage) [13]: no fluorescence intensity increase | TEM: membrane ruffling and delamination ([14]; starting from 1 h): signs of membrane stress including ruffling and delamination were observed | TEM: frequency of cytosolic leakage, treated vs non-treated ([14]; up to 24 h incubation): no significant difference | intracellular ATP levels (RLUs/CFUs) [15]: depletion of ATP levels | increased expression level of MSMEG_5072 compared to control Msm [16]: 10 fold | increased expression level of MSMEG_2694 compared to control Msm [17]: 50 fold
